Laboratory results from US9205124B2, “Compounds for enzyme inhibition” (Onyx Therapeutics, Inc., priority 2005, dated 2015).

Test system: proteasome CT-L activity
Experiment: Proteasome CT-L activity in blood lysates of mice one hour after oral dosing (LLVY-AMC cleavage)
Format: in vivo
Conditions: 20 mg/kg PO, one hour post-dosing, vs vehicle-dosed cohort
Description: Compounds were formulated in 10% PS80/NaCitrate (pH 3) vehicle and administered to mice orally (PO) (3 animals/cohort). One hour post-dosing, the animals were sacrificed and the following tissues harvested: blood, brain, adrenal gland, heart and liver. Whole blood (˜200 μl) was washed twice with PBS and lysed by hypotonic shock (300 μl 50 mM Tris pH 8, 5 mM EDTA). Blood lysates were stored at −80° C. until assayed. Blood lysates were clarified by centrifugation in a microcentrifuge. The CT-L specific activity of proteasome in each lysate was evaluated by determining: a) the protein concentration by modified Bradford assay with bovine gamma globulin as a standard; and b) the rate of cleavage of the fluorogenic proteasome substrate LLVY-AMC. The percent proteasome activity for the analog-treated animals was calculated by dividing of the average specific activity for each analog-dosed cohort by the average specific activity of the vehicle-dosed cohort. Percent proteasome inhibition was calculated by subtracting percent proteasome activity from 100.

Row | Compound | proteasome CT-L inhibition [%]
1 | COC[C@H](NC(=O)c1cc(C)on1)C(=O)N[C@H](C(=O)N[C@@H](CC(C)C)C(=O)[C@@]1(C)CO1)C(C)C [Compound (029)] | > 70
2 | COC[C@H](NC(=O)c1cc(C)on1)C(=O)N[C@@H](Cc1cscn1)C(=O)N[C@@H](CC(C)C)C(=O)[C@@]1(C)CO1 [Compound (039)] | > 75
3 | Cc1cc(C(=O)N[C@@H](Cc2ccccn2)C(=O)N[C@@H](Cc2ccccc2)C(=O)N[C@@H](CC(C)C)C(=O)[C@@]2(C)CO2)no1 [Compound (055)] | > 80
4 | COC[C@H](NC(=O)c1ccon1)C(=O)N[C@@H](COC)C(=O)N[C@@H](CC(C)C)C(=O)[C@@]1(C)CO1 [Compound (083)] | > 80
5 | COC[C@H](NC(=O)c1cc(C)no1)C(=O)N[C@@H](COC)C(=O)N[C@@H](CC(C)C)C(=O)[C@@]1(C)CO1 [Compound (085)] | > 50

Same assay, conditions: 40 mg/kg PO, one hour post-dosing, vs vehicle-dosed cohort

Row | Compound | proteasome CT-L inhibition [%]
6 | COC[C@H](NC(=O)c1cc(C)on1)C(=O)N[C@@H](Cc1ccccc1)C(=O)N[C@@H](CC(C)C)C(=O)[C@@]1(C)CO1 [Compound (010)] | > 90
7 | CC(C)C[C@H](NC(=O)c1cc(CN2CCOCC2)on1)C(=O)N[C@@H](Cc1ccccc1)C(=O)N[C@@H](CC(C)C)C(=O)[C@@]1(C)CO1 [Compound (023)] | > 80
8 | CC(C)C[C@H](NC(=O)[C@H](Cc1ccccc1)NC(=O)[C@@H](NC(=O)c1cc(CN2CCOCC2)on1)C(C)C)C(=O)[C@@]1(C)CO1 [Compound (061)] | > 80
9 | COCC[C@H](NC(=O)c1cc(C(C)C)on1)C(=O)N[C@@H](Cc1ccccc1)C(=O)N[C@@H](CC(C)C)C(=O)[C@@]1(C)CO1 [Compound (068)] | > 70
